Experimental data as given in US20250332293A1, “METHOD FOR MANUFACTURING BIOCOMPATIBLE NANOPARTICLES WITH A PEPTIDE CORE EXHIBITING SECOND- AND THIRD-HARMONIC SIGNAL GENERATION” (MAX-PLANCK-GESELLSCHAFT ZUR FÖRDERUNG DER WISSENSCHAFTEN E. …, priority 2016, published 2025).
Residues, ends and D or L forms follow the SMILES beside them.

Columns and labels:
[1] = Stability of SHG signal with regard to dilution; assay type: physicochemical; settings: 10 mg/ml (versus 100 mg/ml)
Description: Panel A: LIVAGK peptides' SHG signal at a concentration of 100 mg/ml. Panel B: LIVAGK peptides' SHG signal at a concentration of 10 mg/ml.

[2] = Stability of SHG signal with regard to pH of the solvent; assay type: physicochemical
Description: The disassembly occurs within minutes (˜5 minutes) after incubation in pH 4.
Panel A: SHG signal after incubation of the nanoparticles for 72 hours in a buffer at pH 7. Same as in panel A, but at pH 6. Same as in panel A, but at pH 5. Panel D: same as in panel A, but at pH 4.
In FIG. 16a, the effect of different pH values on the SHG signal intensity are shown as a diagram. The nanoparticles were incubated at different pH values for 72 hours (n=5). Representative images showing SHG signal intensity after the nanoparticles were incubated in buffers at FIG. 16b, pH 7, FIG. 16c, pH 6, FIG. 16d, pH 5, and FIG. 16e, pH 4. Scalebar, 10 μm. Mean±s.d. n.s., not significant (Ordinary one-way ANOVA with Tukey's multiple comparisons).

[3] = target: proteinase K (Parengyodontium album, UniProt P06873); assay: Digestion of self-assembled structures by proteinase K, SHG image time series; assay type: in vitro ADME; settings: no polymer shell, aqueous solution with proteinase K, 0 to 60 minutes
Sequence of proteinase K (P06873 106-384): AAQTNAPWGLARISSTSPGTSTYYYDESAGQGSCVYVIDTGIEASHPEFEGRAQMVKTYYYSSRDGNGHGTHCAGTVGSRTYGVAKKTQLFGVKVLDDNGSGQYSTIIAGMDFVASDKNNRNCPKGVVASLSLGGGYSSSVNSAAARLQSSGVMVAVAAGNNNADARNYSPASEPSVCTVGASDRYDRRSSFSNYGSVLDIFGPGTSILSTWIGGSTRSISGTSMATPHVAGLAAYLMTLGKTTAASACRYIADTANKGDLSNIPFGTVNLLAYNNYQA
Description: The digestion 201 is facilitated by a proteinase K.
The proteinase K digests the self-assembled structure into single phenylalanines.
In FIG. 6 the corresponding SHG images of a digestion 201 of self-assembled structures of triphenylalanines 41 suspended in aqueous solution with proteinase K is shown. Here, image A) has been taken at time 0 minutes, image B) at 20 minutes, C) at 40 minutes and image D) after 60 minutes after adding proteinase K to the solution.

SHG signal on dilution [1] | assembly state / SHG signal at pH 4 ([2]; pH 4, 100 mg/ml) | time to disassembly after incubation in pH 4 ([2]; pH 4, 100 mg/ml) | assembly state / SHG signal at pH 7 ([2]; pH 7, 100 mg/ml) | Molecule | SHG signal during proteinase K digestion [3]
no SHG signal can be observed | disassemble | ~5 minutes | still assembled | LIVAGK | –
– | – | – | – | N[C@@H](Cc1ccccc1)C(=O)N[C@@H](Cc1ccccc1)C(=O)N[C@@H](Cc1ccccc1)C(=O)O [triphenylalanine, Phe-Phe-Phe] (H-Phe-Phe-Phe-OH; N-terminus and C-terminus assumed) | decreasing over the course of time
